# Measured values: patent publication US4318925A (priority 1977, dated 1982)
# Counter-ions that a name gives are not always drawn. Like-named read-outs stand apart in the source and are kept apart here.
# How the values were obtained:
# influenza viruses = settings: British Pat. No. 1,063,366; SCIENCE, Vol. 144, 862, (1964); cited from earlier work
# Newcastle diseases virus = settings: Koji Aigami et al., J. of Medicinal Chemistry, Vol. 19, 536 (1976); cited from earlier work
# Influenza AoPR/8 = type: in vivo, ddY male mice; settings: subcutaneous, from 3 hours pre to 150 hours post infection, LLS 7 days after infection, Control (0 mg/kg) 4.8
# in vitro = settings: human, kb cells
SMILES,MCC at 72 h (in vitro) [µg/mL],Lung Lesion Score (Influenza AoPR/8; 15 mg/kg),also measured
NC12CC3CC(CC(C3)C1)C2 [1-adamantanamine],–,–,antiviral activity against influenza viruses (influenza viruses): show antiviral against influenza viruses
NC12CCCC3CC(CCC31)C2 (centres unmarked) [3-amino-4-homoisotwistane hydrochloride],–,–,antiviral activity against Newcastle diseases virus (Newcastle diseases virus): have antiviral activity against Newcastle diseases virus
"NC12CC3CC(CC(C3)C1)C2 [Amantadine hydrochloride, reference compound]",> 50,–,Lung Lesion Score (Influenza AoPR/8; 10 mg/kg): 4.3
CN(C)CCOCC(=O)NC12CCCC3CC(CCC31)C2 (centres unmarked) [N-[3-(4-homoisotwistyl)]-2-(2-dimethylaminoethoxy)-acetamide hydrochloride],250,4.33,–
CCOCC(=O)NC12CCCC3CC(CCC31)C2 (centres unmarked) [N-[3-(4-homoisotwistyl)]-2-ethoxyacetamide],25,–,–
CCCCCOCC(=O)NC12CCCC3CC(CCC31)C2 (centres unmarked) [N-[3-(4-homoisotwistyl)]-2-pentyloxyacetamide],5,–,–
O=C(COc1ccccc1)NC12CCCC3CC(CCC31)C2 (centres unmarked) [N-[3-(4-homoisotwistyl)]-2-phenoxyacetamide],–,4.35,–
CCCCCCCCCCCOCC(=O)NC12CCCC3CC(CCC31)C2 (centres unmarked) [N-[3-(4-homoisotwistyl)]-2-undecyloxyacetamide],10,–,–
"CN(C)CCOCC(=O)N(C)C12CCCC3CC(CCC31)C2 (centres unmarked) [N-methyl, N-[3-(4-homoisotwistyl)]-2-(2-dimethylaminoethoxy) acetamide hydrochloride]",–,4.50,–
